Where a SMILES comes first, the peptide text is derived from it. The star is where a group is joined. Cbz = O=C(OCc1ccccc1)*; CH2F = FC*
Key:
Assay type in all cases: cell-based, human
AML blasts [1] = assay: Functional apoptosis and DNA damage response assay, AML study No. 1 (c-PARP, cleaved caspases, p-Chk2)
Protocol: Multi-parameter flow cytometric analysis was performed on peripheral blasts taken at diagnosis from 9 AML patients who achieved a complete response (CR) and 24 patients who were non-responders (NR) to one cycle of standard 7+3 induction therapy (100-200 mg/m2 cytarabine and 60 mg/m2 daunorubicin). The signaling nodes were organized into 4 biological categories: 1) Protein expression of receptors and drug transporters 2) Response to cytokines and growth factors, 3) Phosphatase activity, and 4) Apoptotic signaling pathways.
A viable cell will be Aqua negative and PARP negative and a measure of cell death is PARP and/or Aqua positivity. “Apoptosis”=% of PARP^−Aqua^−unstim−% of PARP^−Aqua^−Drug.
Functional assays were performed as previously described. Cells were incubated with modulators (Table 18), at 37° C. for 3-15 minutes, fixed with 1.6% paraformaldehyde (final concentration) for 10 minutes at 37° C., pelleted and permeabilized with 100% ice-cold methanol and stored at −80° C.
The median fluorescence intensity (MFI) was computed for each node from the fluorescence intensity levels for the cells in the myeloid population. The MFI values were then used to compute a variety of metrics by comparing them to baseline or background values, including the unmodulated condition, cellular autofluorescence and antibody isotype controls. The following metrics were computed: • 1. Basal MFI (“Basal”)=log2(MFIUnmodulated Stained)−log2(MFIGated Unstained (Autofluoresence)), designed to measure the basal levels of a certain protein under unmodulated conditions. • 2. Fold Change MFI (“Fold”)=log2(MFIModulated Stained)−log2(MFIUnmodulated Stained), a measure of the change in the activation state of a protein under modulated conditions. • 3. Total Phospho MFI (“TotalPhospho”)=log2(MFIModulated Stained)−log2(MFIGated Unstained (Autofluorescence)), a measure of the total levels of a protein under modulated conditions. • 4. Relative Protein Expression (“Rel. Expression”)=log2(MFIstain)−log2(MFIControl), a measure of the levels of surface marker staining relative to control antibody staining. • 5. […] An additional metric was designed to measure the levels of cellular apoptosis in response to cytotoxic drugs: Quadrant (“Quad”)=a measure of the percentage of cells in a flow cytometry quadrant region defined by p-Chk2 and c-PARP i.e. the % of cells that are both p-Chk2- and c-PARP+.

AML blasts [2] = assay: SCNP / phospho-flow modulated signaling assay, AML study No. 1 (PBMC at diagnosis, CR vs NR)
Description: The present illustrative example represents how to analyze cells in one embodiment of the present invention. There are several steps in the process, such as the stimulation step, the staining step and the flow cytometry step. The stimulation step of the phospho-flow procedure can start with vials of frozen cells and end with cells fixed and permeabilized in methanol. Then the cells can be stained with an antibody directed to a particular protein of interest and then analyzed using a flow cytometer.
Frozen cells are thawed in a 37° C. water bath and gently resuspended in the vial and transferred to the 15 mL conical tube. The 15 mL tube is centrifuged at 930 RPM (200×g) for 8 minutes at room temperature. The supernatant is aspirated and the pellet is gently resuspended in 1 mL media A. The cell suspension is filtered through a 70 um cell strainer into a new 15 mL tube. The cell strainer is rinsed with 1 mL media A and another 12 ml of media A into the 15 mL tube. The cells are mixed into an even suspension. A 20 μL aliquot is immediately removed into a 96-well plate containing 180 μL PBS+4% FBS+CD45 Alexa 700+PI to determine cell count and viability post spin. After the determination, the 15 mL tubes are centrifuged at 930 RPM (200×g) for 8 minutes at room temperature. The supernatant is aspirated and the cell pellet is gently resuspended in 4 mL PBS+4 μL Amine Aqua and incubated for 15 min in a 37° C. incubator. 10 mL RPMI+1% FBS is added to the cell suspension and the tube is inverted to mix the cells. The 15 mL tubes are centrifuged at 930 RPM (200×g) for 8 minutes at room temperature. The cells are resuspended in Media A at the desired cell concentration (1.25×10^6/mL). For samples with low numbers of cells (<18.5×10^6), the cells are resuspended in up to 15 mL media. For samples with high numbers of cells (>18.5×10^6), the volume is raised to 10 mL with media A and the desired volume is transferred to a new 15 mL tube, and the cell concentration is adjusted to 1.25×10^6 cells/ml. 1.6 mL of the above cell suspension (concentration at 1.25×10^6 cells/ml) is transferred into wells of a multi-well plate. From this plate, 80 ul is dispensed into each well of a subsequent plate. The plates are covered with a lid (Nunc) and placed in a 37° C. incubator for 2 hours to rest.
A concentration for each stimulant that is five folds more (5×) than the final concentration is prepared using Media A as diluent. 5× stimuli are arrayed into wells of a standard 96 well v-bottom plate that correspond to the wells on the plate with cells to be stimulated.
Adding the stimulant: The cell plate(s) are taken out of the incubator and placed in a 37° C. water bath next to the pipette apparatus. The cell plate is taken from the water bath and gently swirled to resuspend any settled cells. With pipettor, the stimulant is dispensed into the cell plate and vortexed at “7” for 5 seconds. The deep well plate is put back into the water bath.
Adding Fixative: 200 μl of the fixative solution (final concentration at 1.6%) is dispensed into wells and then mixed on the titer plate shaker on high for 5 seconds. The plate is covered with foil sealer and incubated in a 37° C. water bath for 10 minutes. The plate is spun for 6 minutes at 2000 rpm at room temperature. The cells are aspirated using a 96 well plate aspirator (VP Scientific). The plate is vortexed to resuspend cell pellets in the residual volume. The pellet is ensured to be dispersed before the Methanol step (see cell permeabilization) or clumping will occur.
Cell Permeabilization: Permeability agent, for example methanol, is added slowly and while the plate is vortexing. To do this, the cell plate is placed on titer plate shaker and made sure it is secure. The plate is set to shake using the highest setting. A pipetter is used to add 0.6 mls of 100% methanol to the plate wells. The plate(s) are put on ice until this step has been completed for all plates.

AML myeloblasts (BMMC) = assay: SCNP of paired diagnosis and relapse AML BMMC and independent diagnostic set (Example 5); details: paired diagnosis samples of Patients 1 and 2
Description: All AML bone marrow mononuclear cells (BMMC) were derived from the bone marrow (BM) of AML patients treated at MD Anderson Cancer Center (MDACC) between September 1999 and September 2006. Clinical data were de-identified in compliance with Health Insurance Portability and Accountability Act regulations. Patient/sample inclusion criteria required a diagnosis of French-American-British (FAB) classification of M0 through M7 AML (excluding M3) AML, collection prior to therapy initiation and at least 50% viability upon sample thaw. For the identification of chemoresistant signaling profiles, two longitudinally paired BMMC samples at diagnosis (collection prior to the initiation of induction chemotherapy) and first relapse, were examined. An independent test set comprised of 47 BMMC samples collected at diagnosis from AML patients with a disease response of CR after high dose cytarabine based chemotherapy was used to assess the ability of the identified signaling profiles to predict disease relapse. Healthy, unstimulated BMMC (n=2) were purchased from a commercial source (All Cells) to serve as a control. All samples underwent fractionation over Ficoll-Hypaque prior to cryopreservation with 90% fetal bovine serum and 10% dimethyl sulfoxide and storage in liquid nitrogen.
The SCNP assay measured response to growth factors and cytokines involved in hematopoietic progenitor or myeloid biology (SCF, FLT3L, G-CSF, IL-27), drug transporter (ABCG2, MRP-1) and chemokine receptors (CXCR4) associated with adverse disease prognosis in AML, and the c-Kit growth factor receptor for SCF. The SCF and FLT3L-mediated PI3K/Akt and MAPK pathway is important for maintaining the hematopoietic stem cell pool; G-CSF-mediated Jak/STAT pathway activation is important for neutrophilic differentiation of hematopoietic progenitor cells; interleukin (IL)-27 mediated Jak/STAT pathway activation is important in regulating proliferation and differentiation of hematopoietic stem cells; CXCR4 expression is associated with disease relapse and decreased survival; and drug transporter expression levels (i.e. ABCG2 and MRP-1) are known to be associated with adverse prognosis in AML. All together, approximately 20 signaling nodes were evaluated in each sample.
SCNP assays were performed as described previously. Cryopreserved samples were thawed at 37° C. and washed once in warm PBS containing 10% FBS (HyClone, Waltham, Mass., USA) and 2 mM EDTA. […] The cells were re-suspended in RPMI containing 1% FBS, aliquoted to 100,000 cells/condition and rested for 1-2 hours at 37° C. […]

[3] = Study No. 1 sensitivity analysis, CR samples
[4] = Study No. 1 sensitivity analysis, NR samples incl. CRp

## CN[C@@H]1C[C@H]2O[C@@](C)([C@@H]1OC)n1c3ccccc3c3c4c(c5c6ccccc6n2c5c31)C(=O)NC4 [Staurosporine]
AML blasts [1]
  cell death as determined by cleaved PARP and cleaved Caspase 8: failed to undergo cell death
  cleaved PARP and caspase 8: significant populations of cells with cleaved PARP and caspase 8
  in vitro apoptotic response in the context of FLT3 mutations: greatest apoptotic responses were those that expressed FLT3 ITD
  phosphorylated Chk2: increase in phosphorylated Chk2

## COC(=O)CC(NC(=O)C(C)NC(=O)C(NC(=O)OCc1ccccc1)C(C)C)C(=O)CF (stereo not drawn) [Z-VAD, benzyloxycarbonyl-Val-Ala-Asp (OMe) fluoromethylketone] (Cbz-Val-Ala-Asp(OMe)-CH2F; configuration not given here)
AML blasts [1]; samples 0341, 0521
  cleavage of caspase 3 and PARP on co-incubation with Z-VAD: inhibited cleavage of caspase 3 and PARP to near completion
AML blasts [1]; samples 8303, 8402
  PARP cleavage on co-incubation with Z-VAD: only partially inhibited

## SCF: stem cell factor
AML blasts [2]; [3]
  Mean Value of CRs, p-Akt Fold: 0.09
  Mean Value of CRs, p-CREB Total Phospho: 1.32
  Mean Value of CRs, p-Erk Fold: −0.06
  Mean Value of CRs, p-Plcγ2 Total Phospho: 1.80
AML blasts [2]; [4]
  Mean Value of NRs, p-Akt Fold: 0.56
  Mean Value of NRs, p-CREB Total Phospho: 1.92
  Mean Value of NRs, p-Erk Fold: 0.11
  Mean Value of NRs, p-Plcγ2 Total Phospho: 2.79
AML myeloblasts (BMMC)
  responsive cells in diagnostic AML bone marrow samples: ~1%

B1: G-CSF: granulocyte colony-stimulating factor (protein, UniProt P09919 31-207, looked up)
Granulocyte …: TPLGPASSLPQSFLLKCLEQVRKIQGDGAALQEKLVSECATYKLCHPEELVLLGHSLGIPWAPLSSCPSQALQLAGCLSQLHSGLFLYQGLLQALEGISPELGPTLDTLQLDVADFATTIWQQMEELGMAPALQPTQGAMPAFASAFQRRAGGVLVASHLQSFLEVSYRVLRHLAQP
AML blasts [2]; Staurosporine Resistant category vs other apoptosis categories
  increase in p-Akt and p-S6 levels: greatest increase in p-Akt and p-S6 levels
AML blasts [2]; [3]
  Mean Value of CRs, p-Stat3 Fold: 0.60
  Mean Value of CRs, p-Stat3 Total Phospho: 1.40
  Mean Value of CRs, p-Stat5 Fold: 0.33
AML blasts [2]; [4]
  Mean Value of NRs, p-Stat3 Total Phospho: 2.74
  Mean Value of NRs, p-Stat5 Fold: 1.15
AML blasts [2]; Study No. 1 sensitivity analysis, NR samples incl. CRp, negative = down regulation
  Mean Value of NRs, p-Stat3 Fold: 1.52
AML blasts [2]; all samples of the Staurosporine Resistant apoptosis category
  Jak/Stat response (G-CSF: p-Stat3, p-Stat5; GM-CSF: p-Stat5): Robust Jak/Stat responses
AML myeloblasts (BMMC)
  responsive cells in diagnostic AML bone marrow samples: ~1%
